Tests used:
Format in all cases: in vivo
[1] = test system: Boll Weevil (Anthonomus grandis); experiment: B.9 Boll weevil microtiter diet test, egg and larval mortality; settings: 120 h, in comparison with untreated controls, egg and larval mortality after 5 days
In short: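 Insect diet carrying 20-30 A. grandis eggs per well was sprayed with compounds formulated in 75% water/25% DMSO, at various concentrations with two replicates. Plates were held at about 23±1° C and 50±5% RH for 5 days. Egg and larval mortality were then scored visually.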

[2] = test system: Green Peach Aphid (Myzus persicae); experiment: B.3 Green peach aphid systemic test, artificial diet under membrane; settings: 72 h, concentration of the test solution 2500 mg/L, 3 days
In short: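 Systemic uptake from artificial liquid diet beneath a membrane, compound formulated in 75% water/25% DMSO and added to diet at several concentrations, two replicates. 5-8 adult aphids fed on treated diet for 3 days at about 23±1° C. and 50±5% RH. Mortality and fecundity scored visually.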

[3] = test system: Green Peach Aphid (Myzus persicae); experiment: B.13 Green peach aphid test on sprayed bell pepper plants; settings: 120 h, in comparison with untreated controls, after 5 days
From the text: B.13 Green Peach Aphid (Myzus persicae)
The active compounds were formulated in cyclohexanone as a 10,000 ppm solution supplied in tubes. The tubes were inserted into an automated electrostatic sprayer equipped with an atomizing nozzle and they served as stock solutions for which lower dilutions were made in 50% acetone:50% water (v/v). A nonionic surfactant (Kinetic®) was included in the solution at a volume of 0.01% (v/v). Bell pepper plants at the first true-leaf stage were infested prior to treatment by placing heavily infested leaves from the main colony on top of the treatment plants. Aphids were allowed to transfer overnight to accomplish an infestation of 30-50 aphids per plant and the host leaves were removed. The infested plants were then sprayed by an automated electrostatic plant sprayer equipped with an atomizing spray nozzle. The plants were dried in the sprayer fume hood, removed, and then maintained in a growth room under fluorescent lighting in a 24-hr photoperiod at about 25° C. and about 20-40% relative humidity. Aphid mortality on the treated plants, relative to mortality on untreated control plants, was determined after 5 days.

[4] = test system: Cowpea Aphid (Aphis craccivora); experiment: B.1 Cowpea aphid spray test on potted cowpea plants; settings: in comparison with untreated controls, population reduction assessed after 24, 72 and 120 hours
Procedure: B.1 Cowpea Aphid (Aphis craccivora)
The active compounds were formulated in 50:50 (v/v) acetone:water. The test solution was prepared at the day of use. Potted cowpea plants colonized with approximately 100-150 aphids of various stages were sprayed after the pest population has been recorded. Population reduction was assessed after 24, 72, and 120 hours.

[5] = test system: Cotton Aphid (Aphis gossypii, Mixed Life Stages); experiment: B.14 Cotton aphid test on sprayed cotton plants; settings: 120 h, in comparison with untreated controls, after 5 days
Procedure: B.14 Cotton Aphid (Aphis gossypii, Mixed Life Stages)
The active compounds were formulated in cyclohexanone as a 10,000 ppm solution supplied in 1.3 ml ABgene® tubes. These tubes were inserted into an automated electrostatic sprayer equipped with an atomizing nozzle and they served as stock solutions for which lower dilutions were made in 50% acetone:50% water (v/v). A nonionic surfactant (Kinetic®) was included in the solution at a volume of 0.01% (v/v). Cotton plants at the cotyledon stage were infested with aphids prior to treatment by placing a heavily infested leaf from the main aphid colony on top of each cotyledon. Aphids were allowed to transfer overnight to accomplish an infestation of 80-100 aphids per plant and the host leaf was removed. The infested plants were then sprayed by an automated electrostatic plant sprayer equipped with an atomizing spray nozzle. The plants were dried in the sprayer fume hood, removed from the sprayer, and then maintained in a growth room under fluorescent lighting in a 24-hr photoperiod at 25° C. and 20-40% relative humidity. Aphid mortality on the treated plants, relative to mortality on untreated control plants, was determined after 5 days.

[6] = test system: Silverleaf Whitefly (Bemisia argentifolii); experiment: B.5 Silverleaf whitefly test on sprayed cotton plants; settings: 72 h, in comparison with untreated controls, 3 days after treatment
In short: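 Cotyledon-stage cotton plants were electrostatically sprayed with compound diluted from a 10,000 ppm cyclohexanone stock into 50% acetone/water with 0.01% nonionic surfactant. After drying, 10–12 adult whiteflies (3–5 days old) were released onto each plant. Mortality was scored after 3 days at 25 °C and 20–40% RH against untreated plants.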

[7] = test system: Rice brown plant hopper (Nilaparvata lugens); experiment: B.11 Rice brown plant hopper test on sprayed rice seedlings; settings: in comparison with untreated controls, after 72 hours
In short: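 Compounds formulated in 50:50 acetone:water with 0.1% vol/vol surfactant and sprayed onto potted rice seedlings. Air-dried plants were caged, infested with 10 adults and held at about 28-29 °C, 50-60% RH. Percent mortality scored after 72 hours.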

[8] = test system: Southern Armyworm (Spodoptera eridania); experiment: B.6 Southern armyworm test on sprayed lima bean plants; settings: 96 h, in comparison with untreated controls, 4 days after treatment
Procedure: B.6 Southern Armyworm (Spodoptera eridania)
The active compounds were formulated in cyclohexanone as a 10,000 ppm solution supplied in 1.3 ml ABgene® tubes. These tubes were inserted into an automated electrostatic sprayer equipped with an atomizing nozzle and they served as stock solutions for which lower dilutions were made in 50% acetone:50% water (v/v). A nonionic surfactant (Kinetic®) was included in the solution at a volume of 0.01% (v/v). Lima bean plants (variety Sieva) were grown 2 plants to a pot and selected for treatment at the 1st true leaf stage. Test solutions were sprayed onto the foliage by an automated electrostatic plant sprayer equipped with an atomizing spray nozzle. The plants were dried in the sprayer fume hood and then removed from the sprayer. Each pot was placed into perforated plastic bags with a zip closure. Ten to 11 armyworm larvae were placed into the bag and the bags zipped closed. Test plants were maintained in a growth room at 25° C. and 20-40% relative humidity for 4 days, avoiding direct exposure to fluorescent light (24 hour photoperiod) to prevent trapping of heat inside the bags. Mortality and reduced feeding were assessed 4 days after treatment, compared to untreated control plants.

[9] = test system: Yellow Fever Mosquito (Aedes aegypti); experiment: whole plant or invertebrate; settings: 48 h, in comparison with untreated controls, larval mortality after 2 days
In short: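 Freshly hatched larvae (5-15 per well) in 200 μl tap water; compounds formulated in 75% water/25% DMSO and sprayed at 2.5 μl per well at several concentrations, two replicates. Incubated 2 days at 28±1° C., 80±5% RH; larval mortality scored visually.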

CC(c1ccc(F)cn1)C(C#N)(C#N)c1ccccc1 (stereo not shown) [II-8]
≥ 75%: mortality at 2500 ppm [1] | mortality at 2500 µg/mL [2] | mortality at 300 ppm [3] | mortality at 500 ppm [4] | mortality at 300 ppm [5] | mortality at 500 ppm [6] | mortality at 300 ppm [7] | mortality at 300 ppm ([8]; 300 ppm) | mortality at 500 ppm ([8]; 500 ppm) | mortality at 2500 ppm [9]

Reference: patent US10117430B2, “Malononitrile compounds for controlling animal pests” (BASF SE, priority 2012, dated 2018)
